{"source": "patent US5268374A", "about": "“Non-peptide renin inhibitors” (Abbott Laboratories, priority 1991, dated 1993)", "data": [{"biological_target": "T1, human renal renin (Homo sapiens, UniProt P00797)", "T1 construct": "from tissue; host or cells: human kidney (read from the word 'renal'; no preparation is printed)", "T1 sequence (P00797 67-406)": "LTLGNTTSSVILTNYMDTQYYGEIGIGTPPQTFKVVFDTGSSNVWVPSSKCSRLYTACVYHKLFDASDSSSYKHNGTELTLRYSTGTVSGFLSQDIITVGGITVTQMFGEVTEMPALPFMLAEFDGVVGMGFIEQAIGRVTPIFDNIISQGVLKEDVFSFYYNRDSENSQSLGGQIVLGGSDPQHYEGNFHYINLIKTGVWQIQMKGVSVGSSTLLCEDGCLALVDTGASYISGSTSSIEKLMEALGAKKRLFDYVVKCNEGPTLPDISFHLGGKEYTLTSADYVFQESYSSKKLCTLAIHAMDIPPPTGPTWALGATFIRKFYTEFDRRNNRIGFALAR", "experiment": "Inhibition of human renal renin in vitro (angiotensin I formation by radioimmunoassay)", "assay_type": "biochemical", "settings": "not given", "units": {"IC50": "nM"}, "values": [{"smiles": "CCCC[C@H](N[C@@H](Cc1ccccc1)C(=O)N1CCC(OCOC)CC1)C(=O)N[C@@H](CC1CCCCC1)[C@@H](O)C[C@H](C(=O)NCCCn1ccnc1)C(C)C", "note": "[Example 119]", "IC50": 3}]}, {"biological_target": "T1, human renal renin", "experiment": "Inhibition of human renal renin in vitro (angiotensin I formation by radioimmunoassay)", "assay_type": "biochemical", "settings": "human renal renin, 37 degrees C, pH 6.0; read-out: IC50", "units": {"IC50": "nM"}, "values": [{"smiles": "CCCC[C@H](N[C@@H](Cc1ccccc1)C(=O)N1CCOCC1)C(=O)N[C@@H](CC1CCCCC1)[C@@H](O)[C@@H](O)CC(C)C", "note": "[Example 69, N-(1(S)-(4-Morpholinylcarbonyl)-2-phenylethyl)-L-norleucyl Amide of 2(S)-Amino-1-cyclohexyl-3(R),4(S)-dihydroxy-6-methylheptane]", "IC50": 9}, {"smiles": "CC(C)C[C@H](O)[C@H](O)[C@H](CC1CCCCC1)NC(=O)[C@H](C)O[C@@H](Cc1ccccc1)C(=O)N1CCC1", "note": "[Example 87, 2(S)-(1(S)-(N-Azetidinylcarbonyl)-2-phenylethoxy)propionic acid Amide of 2(S)-Amino-1-cyclohexyl-3(R),4(S)-dihydroxy-6-methylheptane]", "IC50": 5.5}, {"smiles": "CC(C)C[C@H](O)[C@H](O)[C@H](CC1CCCCC1)NC(=O)[C@H](C)O[C@@H](Cc1ccccc1)C(=O)N1CCCC1", "note": "[Example 88, 2(S)-(1(S)-(N-Pyrolidinylcarbonyl)-2-phenylethoxy)propionic acid Amide of 2(S)-Amino-1-cyclohexyl-3(R),4(S)-dihydroxy-6-methylheptane]", "IC50": 12}, {"smiles": "CC(C)C[C@H](O)[C@H](O)[C@H](CC1CCCCC1)NC(=O)[C@H](C)O[C@@H](Cc1ccccc1)C(=O)N1CCCCC1", "note": "[Example 89, 2(S)-(1(S)-(N-Piperidinylcarbonyl)-2-phenylethoxy)propionic acid Amide of 2(S)-Amino-1-cyclohexyl-3(R),4(S)-dihydroxy-6-methylheptane]", "IC50": 15}, {"smiles": "CCCCNC(=O)[C@@H](C[C@H](O)[C@H](CC1CCCCC1)NC(=O)[C@H](C)O[C@@H](Cc1ccccc1)C(=O)N1CCOCC1)C(C)C", "note": "[Example 91, 2(S)-(1(S)-(4-Morpholinylcarbonyl)-2-phenylethoxy)propionic acid Amide of 2(S)-Amino-1-cyclohexyl-3(S)-hydroxy-5(S)-n-butylcarbamoyl-6-methylheptane]", "IC50": 3.9}, {"smiles": "CCCC[C@H](O[C@@H](Cc1ccccc1)C(=O)N1CCC(OCOC)CC1)C(=O)N[C@@H](CC1CCCCC1)[C@@H](O)[C@@H](O)CC(C)C", "note": "[Example 93, 2(S)-(1(S)-(4-(Methoxymethoxy)piperidin-1-yl-carbonyl)-2-phenylethoxy)hexanoic acid Amide of 2(S)-Amino-1-cyclohexyl-3(R),4(S)-dihydroxy-6-methylheptane]", "IC50": 1.1}, {"smiles": "COCOC1CCN(C(=O)[C@H](Cc2ccccc2)O[C@@H](C)C(=O)N[C@@H](CC2CCCCC2)[C@@H](O)[C@@H](O)CC(C)C)CC1", "note": "[Example 94, 2(S)-(1(S)-(4-(Methoxymethoxy)piperidinyl-1-yl-carbonyl)-2-phenylethoxy)propionic acid Amide of 2(S)-Amino-1-cyclohexyl-3(R),4(S)-dihydroxy-6-methylheptane]", "IC50": 1.3}, {"smiles": "CCCCNC(=O)[C@@H](C[C@H](O)[C@H](CC1CCCCC1)NC(=O)[C@H](CCCC)O[C@@H](Cc1ccccc1)C(=O)N1CCC(OCOC)CC1)C(C)C", "note": "[Example 96, 2(S)-(1(S)-(4-(Methoxymethoxy)piperidin-1-yl-carbonyl)-2-phenylethoxy)hexanoic acid Amide of 2(S)-Amino-1-cyclohexyl-3(S)-hydroxy-5(S)-n-butylcarbamoyl-6-methylheptane]", "IC50": 1.5}, {"smiles": "CCCC[C@H](O[C@@H](Cc1ccccc1)C(=O)N1CCC(OCOC)CC1)C(=O)N[C@@H](CC1CCCCC1)[C@@H](O)[C@@H]1CN(CC)C(=O)O1", "note": "[Example 108, 2(S)-(1(S)-(4-(Methoxymethoxy)piperidin-1-yl-carbonyl)-2-phenylethoxy)hexanoic acid Amide of (2's,1'R,5S)-3-Ethyl-5-(1'-hydroxy-2'-amino-3'-cyclohexylpropyl)oxazolidin-2-one]", "IC50": 0.87}, {"smiles": "CCCC[C@H](O[C@@H](Cc1ccccc1)C(=O)N1CCC(OCOC)CC1)C(=O)N[C@@H](CC1CCCCC1)[C@@H](O)C[C@H](C(=O)NCCCn1ccnc1)C(C)C", "note": "[Example 116, 2(S)-(1(S)-(4-(Methoxymethoxy)piperidin-1-yl)carbonyl-2-phenyl)ethoxyhexanoic acid amide of 3-(1-imidazolyl)propyl 5(S)-amino-6-cyclohexyl-4(S)-hydroxy-2(S)-isopropylhexanamide]", "IC50": 1.3}, {"smiles": "CCCC[C@H](O[C@@H](Cc1ccccc1)C(=O)N1CCC(OCOC)CC1)C(=O)N[C@@H](CC1CCCCC1)[C@@H](O)C[C@H](C(=O)NCCCN(C)C)C(C)C", "note": "[Example 117, 2(S)-(1(S)-(4-(Methoxymethoxy)piperidin-1-yl)carbonyl-2-phenyl)ethoxyhexanoic acid amide of 3-(dimethylamino)propyl 5(S)-amino-6-cyclohexyl-4(S)-hydroxy-2(S)-isopropylhexanamide]", "IC50": 2.5}, {"smiles": "CCCC[C@H](O[C@@H](Cc1ccccc1)C(=O)N1CCC(OCOC)CC1)C(=O)N[C@@H](CC1CCCCC1)[C@@H](O)CN(C)S(=O)(=O)NC", "note": "[Example 122, 2(S)-(1(S)-(4-(Methoxymethoxy)piperidin-1-yl)carbonyl-2-phenyl)ethoxyhexanoic acid amide of (2S,3S)-3-amino-4-cyclohexyl-2-hydroxy-1-(methyl(methylsulfamoyl)amino)butane]", "IC50": 2.5}, {"smiles": "CCCC[C@H](O[C@@H](Cc1ccccc1)C(=O)N1CCC(OCOC)CC1)C(=O)N[C@@H](CC1CCCCC1)[C@@H](O)C[C@H](NC(=O)OCCN(C)C)C(C)C", "note": "[Example 129]", "IC50": 2.7}, {"smiles": "CCCC[C@H](O[C@@H](Cc1ccccc1)C(=O)N1CCC(OCOC)CC1)C(=O)N[C@@H](CC1CCCCC1)[C@@H](O)C[C@H](NC(=O)OCCN1CCOCC1)C(C)C", "note": "[Example 130]", "IC50": 1.4}, {"smiles": "CCCC[C@H](O[C@@H](Cc1ccccc1)C(=O)N1CCC(OCOC)CC1)C(=O)N[C@@H](CC1CCCCC1)[C@@H](O)C[C@H](NC(=O)OCCc1ccccn1)C(C)C", "note": "[Example 131]", "IC50": 0.88}, {"smiles": "CCCCC(=O)N[C@@H](C[C@H](O)[C@H](CC1CCCCC1)NC(=O)[C@H](CCCC)O[C@@H](Cc1ccccc1)C(=O)N1CCC(OCOC)CC1)C(C)C", "note": "[Example 132, 2(S)-1(S)-4-(Methoxymethoxy)piperidin-1-yl)carbonyl-2-phenyl)ethoxyhexanoicacid amide of 2(S)-amino-1-cyclohexyl-5(S)-((2-(pentanoyl)amino-3(S)-hydroxy-6-methylheptane]", "IC50": 3.2}, {"smiles": "CCCC[C@H](O[C@@H](Cc1ccccc1)C(=O)N1CCC(OCOC)CC1)C(=O)N[C@@H](CC1CCCCC1)[C@@H](O)C[C@H](C(=O)NCCC[N+](C)(C)[O-])C(C)C", "note": "[Example 136]", "IC50": 1.4}, {"smiles": "CCCC[C@H](O[C@@H](Cc1ccccc1)C(=O)N1CCC(OCOC)CC1)C(=O)N[C@@H](CC1CCCCC1)[C@@H](O)[C@@H](O)CN(C)OC", "note": "[Example 139]", "IC50": 2.7}, {"smiles": "CCCC[C@H](O[C@@H](Cc1ccccc1)C(=O)N1CCC(OCOC)CC1)C(=O)N[C@@H](CC1CCCCC1)[C@@H](O)CN(C(C)C)S(=O)(=O)NC", "note": "[Example 142, 2(S)-(1(S)-(4-(Methoxymethoxy)piperidin-1-yl)carbonyl-2-phenyl)ethoxyhexanoic acid amide of (2S,3S)-3-amino-4-cyclohexyl-2-hydroxy-1-(isopropyl(methylsulfamoyl)amino)butane]", "IC50": 1.3}, {"smiles": "CCCC[C@H](O[C@@H](Cc1ccccc1)C(=O)N1CCC(OCOC)CC1)C(=O)N[C@@H](CC1CCCCC1)[C@@H](O)C(F)(F)[C@H](O)C(C)C", "note": "[Example 179]", "IC50": 4.6}, {"smiles": "CCCC[C@H](O[C@@H](Cc1ccccc1)C(=O)N1CCC(OCOC)CC1)C(=O)N[C@@H](CC(C)C)[C@@H](O)CC(=O)NCC(C)CC", "note": "(some centres unmarked) [Example 180]", "IC50": 3.8}, {"smiles": "CCCC[C@H](N[C@@H](Cc1ccccc1)C(=O)N1CCC(OCOC)CC1)C(=O)N[C@@H](CC1CCCCC1)[C@H](O)CC(C(=O)N[C@H](C(=O)NCc1ccccn1)[C@@H](C)CC)C(C)C", "note": "(some centres unmarked) [Example 181]", "IC50": 1.8}]}]}
